Source: publication PMC8949142 (2022)

Tests used:
[1] = system: G48nop (unlabeled) (DNA, aptamer) GCGACCGAAGTGAGGCTCGATCCAAGGTGGACGGGAGGTTGGATTGTGCGTG; assay: circular dichroism; details: 100 mM Na+, 5 mM K+, 2 mM Mg2+, 1 mM Ca2+; 20 mM Tris-HCl pH 7.6, 20 °C; 5 µM aptamer; qualitative
[2] = system: G48 (DNA, aptamer) GGGAGGACGAAGCGGAACGCGACCGAAGTGAGGCTCGATCCAAGGTGGACGGGAGGTTGGATTGTGCGTGCAGAAGACACGCCCGACA; assay: biolayer interferometry; details: 100 mM Na+, 5 mM K+, 2 mM Mg2+, 1 mM Ca2+; 20 mM Tris-HCl pH 7.6; 1:1 fit
[3] = system: G13 (DNA, aptamer) GGGAGGACGAAGCGGAACCCATGGGGTGTGAGGCTCGATCAGGAGGTAAAAGCAGCGCGTCGTCAGTGTGCAGAAGACACGCCCGACA; assay: biolayer interferometry; details: 100 mM Na+, 5 mM K+, 2 mM Mg2+, 1 mM Ca2+; 20 mM Tris-HCl pH 7.6; 1:1 fit
[4] = system: G16 (DNA, aptamer) GGGAGGACGAAGCGGAACCACCTTGAGATGAGGCTCGATCACCGGTGGGTATAGTGGTCGCGATGTATACCAGAAGACACGCCCGACA; assay: biolayer interferometry; details: 100 mM Na+, 5 mM K+, 2 mM Mg2+, 1 mM Ca2+; 20 mM Tris-HCl pH 7.6; 1:1 fit
[5] = system: G79 (DNA, aptamer) GGGAGGACGAAGCGGAACGGGGGTGGGTTGAGGCTCGATCATGATAGCGAATTGGACACGATTCGTGTACCAGAAGACACGCCCGACA; assay: biolayer interferometry; details: 100 mM Na+, 5 mM K+, 2 mM Mg2+, 1 mM Ca2+; 20 mM Tris-HCl pH 7.6; 1:1 fit
[6] = system: G29 (DNA, aptamer) GGGAGGACGAAGCGGAACCGTAGGAAAGTGAGGCTCGATCTACCCTTGGATCGATTTGTCAGGTGGGGACCAGAAGACACGCCCGACA; assay: biolayer interferometry; details: 100 mM Na+, 5 mM K+, 2 mM Mg2+, 1 mM Ca2+; 20 mM Tris-HCl pH 7.6; 1:1 fit
[7] = system: G24 (DNA, aptamer) GGGAGGACGAAGCGGAACGGGCGGGATTTGAGGCTCGATCCGACTACGGATACGGCTTGCTTGTATCCGCCAGAAGACACGCCCGACA; assay: biolayer interferometry; details: 100 mM Na+, 5 mM K+, 2 mM Mg2+, 1 mM Ca2+; 20 mM Tris-HCl pH 7.6; 1:1 fit
[8] = system: G48nop (DNA, aptamer) GCGACCGAAGTGAGGCTCGATCCAAGGTGGACGGGAGGTTGGATTGTGCGTG; assay: biolayer interferometry; details: 100 mM Na+, 5 mM K+, 2 mM Mg2+, 1 mM Ca2+, 20 mM Tris-HCl pH 7.6
[9] = system: G48nors (DNA, aptamer) TGAGGCTCGATCCAAGGTGGACGGGAGGTTGGATTGTGCGTG; assay: biolayer interferometry; details: 100 mM Na+, 5 mM K+, 2 mM Mg2+, 1 mM Ca2+; 20 mM Tris-HCl pH 7.6; 1:1 fit
[10] = system: G48norsj (DNA, aptamer) CGATCCAAGGTGGACGGGAGGTTGGATTG; assay: biolayer interferometry; details: 100 mM Na+, 5 mM K+, 2 mM Mg2+, 1 mM Ca2+; 20 mM Tris-HCl pH 7.6; 1:1 fit
[11] = system: random sequence (control) (DNA, single strand) GAGCCTTAGCAGCACTTCACACGATCCACCCTTAAGGCCAACCTTAACACGACCTCAAACACTGCGTAATGACTGTAGTGATGCCTTA; assay: biolayer interferometry; details: 100 mM Na+, 5 mM K+, 2 mM Mg2+, 1 mM Ca2+; 20 mM Tris-HCl pH 7.6; tested at 0.5 µM
[12] = system: G48nop (FAM) (DNA, aptamer) GCGACCGAAGTGAGGCTCGATCCAAGGTGGACGGGAGGTTGGATTGTGCGTG; assay: microscale thermophoresis; details: 100 mM Na+, 5 mM K+, 2 mM Mg2+, 1 mM Ca2+, 20 mM Tris-HCl pH 7.6, 0.02% Tween-20, 25 °C
[13] = system: control (random) sequence (FAM) (DNA, single strand) GAGCCTTAGCAGCACTTCACACGATCCACCCTTAAGGCCAACCTTAACACGACCTCAAACACTGCGTAATGACTGTAGTGATGCCTTA; assay: microscale thermophoresis; details: 100 mM Na+, 5 mM K+, 2 mM Mg2+, 1 mM Ca2+; 20 mM Tris-HCl pH 7.6, 0.02% Tween-20, 25 °C; GYM-A up to 10,000 nM; not fittable
[14] = system: G48nop (DNA, aptamer) GCGACCGAAGTGAGGCTCGATCCAAGGTGGACGGGAGGTTGGATTGTGCGTG; assay: BLI aptasensor calibration, five-parameter logistic fit; details: 100 mM Na+, 5 mM K+, 2 mM Mg2+, 1 mM Ca2+; 20 mM Tris-HCl pH 7.6; GYM-A 55–14,000 nM; slope exponent -0.7837

binding [1]	KD [2]	KD [3]	KD [4]	KD [5]	KD [6]	KD [7]	KD ([8]; 1:1 fit)	KD [9]	KD [10]	binding [11]	KD [12]	binding [13]	EC50 [14]	binding ([8]; tested up to 1.5 µM)	binding ([12]; NB [sic], highest concentration not stated)	SMILES
yes	288 nM	168,000 nM	495 nM	341 nM	308 nM	859 nM	95.30 nM	354.00 nM	501.00 nM	no	34.50 ± 1.72 nM	no	3316 nM			CC1=C[C@@H](C2=C(C)[C@@H]3/C=C(\C)[C@@H](O)CC[C@@H]4C[C@@H](C)[C@@H](O4)/C(C)=C/CCC4=NCCC[C@@]43CC2)OC1=O
														no	no	C=C1[C@@H](O)[C@@H]2O[C@]3(CC[C@H](/C=C/[C@@H](C)[C@@H]4CC(C)=C[C@@]5(O[C@H](C[C@@](C)(O)C(=O)O)CC[C@H]5O)O4)O3)CC[C@H]2O[C@@H]1[C@@H](O)C[C@H](C)[C@H]1O[C@@]2(CCCCO2)CC[C@H]1C
